The text below walks through data of BindingDB's records for doi:10.1080/14756360701546595 (University of Zimbabwe, 2008).

This test deals with T1, Glutathione S-transferase E2 (Anopheles gambiae, UniProt Q9GPL8).
T1 sequence (Q9GPL8 whole entry): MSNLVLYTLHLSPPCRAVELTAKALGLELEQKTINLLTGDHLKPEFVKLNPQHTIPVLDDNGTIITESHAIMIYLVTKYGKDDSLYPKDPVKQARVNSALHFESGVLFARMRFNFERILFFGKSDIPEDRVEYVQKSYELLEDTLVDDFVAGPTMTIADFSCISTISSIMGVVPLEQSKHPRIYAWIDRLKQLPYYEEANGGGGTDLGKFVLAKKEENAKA
Nature of the test: GST Inhibition Assay. The following applies: pH 6.5; 30 °C. From the text: A range of natural product were screened for inhibition of AgGSTE2. GST activity was monitored by measuring absorbance at 340 nm with time, using a SpectraMax 340 microplate spectrophotometer equipped with a kinetics mode from Molecular Devices, Sunnyvale, California, USA.

Regarding `CC(C)=CCCC1(C)C(CC=C(C)C)CC2(CC=C(C)C)C(=O)C(C(=O)c3ccc(O)c(O)c3)C(=O)C1(CC=C(C)C)C2=O` (stereo not given) [GGI], 4.8 µM corresponded to half-maximal inhibition (IC50).

As for `O=Cc1occ2c(O)c3c(O)ccc(O)c3c(O)c12` [MR-13/4], the IC50 – broadly, the concentration at which inhibition is half-maximal – was 4.3 µM.

Regarding `COc1cc(O)c(-c2c(C)cc(O)c3c2Cc2cccc(O)c2C3=O)c(O)c1C(C)=O` [Name not given], the IC50 turned out to be 3.5 µM.

For the molecule `C=Cc1c(OC=O)cc(O)c2c1OC(c1ccc(O)c(O)c1)C(O)C2` (stereo not given) [TRAL-1], half-maximal inhibition (IC50) required 1.5 µM.

Regarding `C=C(CC)C(=O)c1ccc(OCC(=O)O)c(Cl)c1Cl` [[2,3-dichloro-4-(2-methylidenebutanoyl)phenoxy]acetic acid], it took 1.4 µM to reach half-maximal inhibition (IC50).
